Reference: patent US20070059704A1, “Detection system” (priority 2003, published 2007)

Tested on: J3130
Assay: Bioassay: induction of growth of drug-dependent femX null mutant J3130 by antibiotics applied on paper discs
Assay type: cell-based, Streptomyces coelicolor
Conditions: for induction of growth of J3130 around the paper disc: paper disc on MMT medium spread with J3130 spores, result in words
Text: To see if growth of J3130 could be induced by control antibiotics known to target the cell envelope, spores of J3130 were spread on MMT medium (Kieser et al, 2000) and potential inducers were applied on paper discs to the freshly spread plates. […] None of the other antibiotics tested, including many cell wall-specific non-glycopeptide antibiotics, induced growth of J3130.
In order to perform the assay of the invention, spores of J3130 are spread on MMT medium at concentration of approximately 5×10^6/12 cm^2 plate. Test compound is applied on paper discs to a number of freshly spread plates in parallel using a different concentration of the test compound in each plate.

Row | Compound | amount that gives a positive reaction in the bioassay (initial assessment of sensitivity) (J3130 bioassay, two-fold dilution series) | induction of growth of J3130 around the paper disc
1 | CN[C@H](CC(C)C)C(=O)N[C@H]1C(=O)N[C@@H](CC(N)=O)C(=O)N[C@H]2C(=O)N[C@H]3C(=O)N[C@H](C(=O)N[C@H](C(=O)O)c4cc(O)cc(O)c4-c4cc3ccc4O)[C@H](O)c3ccc(c(Cl)c3)Oc3cc2cc(c3O[C@@H]2O[C@H](CO)[C@@H](O)[C@H](O)[C@H]2O[C@H]2C[C@](C)(N)[C@H](O)[C@H](C)O2)Oc2ccc(cc2Cl)[C@H]1O [Vancomycin] | 80 ng | induced a halo of growth
2 | CN[C@H](CC(C)C)C(=O)N[C@H]1C(=O)N[C@@H](CC(N)=O)C(=O)N[C@H]2C(=O)N[C@H]3C(=O)N[C@H](C(=O)N[C@H](C(=O)O)c4cc(O)cc(O)c4-c4cc3ccc4O)[C@H](O[C@H]3C[C@](C)(N)[C@@H](O)[C@H](C)O3)c3ccc(c(Cl)c3)Oc3cc2cc(c3O[C@@H]2O[C@H](CO)[C@@H](O)[C@H](O)[C@H]2O[C@H]2C[C@](C)(N)[C@@H](O)[C@H](C)O2)Oc2ccc(cc2Cl)[C@H]1O [Chloroeremomycin] |  | induced a halo of growth
3 | Ristocetin |  | induced a halo of growth
4 | N[C@H]1C(=O)N[C@@H]2Cc3ccc(c(Cl)c3)Oc3cc4cc(c3O)Oc3ccc(cc3Cl)[C@@H](O)[C@@H]3NC(=O)[C@H](NC(=O)[C@@H]4NC(=O)[C@@H](NC2=O)c2cc(O)cc(c2)Oc2cc1ccc2OS(=O)(=O)O)c1cc(Cl)c(O)c(c1)-c1c(O)cc(O)cc1[C@@H](C(=O)O)NC3=O [A47934] |  | induced a halo of growth
